Source: patent US11279714B2, “Anti-infective compounds” (priority 2014, dated 2022)

What was measured:
Assay type in all cases: cell-based, Mycobacterium
Details in all cases: REMA, 1 week + 1 day resazurin; relative to H37Rv
[1] = test system: MDR-146 (clinical isolate of multidrug-resistance tuberculosis)
[2] = test system: MDR-33 (clinical isolate of multidrug-resistance tuberculosis)
[3] = test system: MDR-137 (clinical isolate of multidrug-resistance tuberculosis)

Compound | Antibacterial activity MDR-146 [1] | Antibacterial activity MDR-33 [2] | Antibacterial activity MDR-137 [3]
Cc1nc2cc(NC(=O)c3cc4sc(N5CCOCC5)nc4s3)ccc2o1 [Compound 83] | +++ (+++ indicates <2 times of MIC50 on wild type strain (H37Rv)) | +++ (+++ indicates <2 times of MIC50 on wild type strain (H37Rv)) | +++ (+++ indicates <2 times of MIC50 on wild type strain (H37Rv))
COc1ccc(NC(=O)c2cc3sc(N4CCC(C(=O)N(C)C)CC4)nc3s2)cc1 [Compound 127] | +++ (+++ indicates <2 times of MIC50 on wild type strain (H37Rv)) | +++ (+++ indicates <2 times of MIC50 on wild type strain (H37Rv)) | +++ (+++ indicates <2 times of MIC50 on wild type strain (H37Rv))
Cc1nc2cc(NC(=O)c3cc4sc(N5CCC(CO)CC5)nc4s3)ccc2o1 [Compound 144] | +++ (+++ indicates <2 times of MIC50 on wild type strain (H37Rv)) | +++ (+++ indicates <2 times of MIC50 on wild type strain (H37Rv)) | +++ (+++ indicates <2 times of MIC50 on wild type strain (H37Rv))
COCCN(C)c1nc2sc(C(=O)Nc3ccc4oc(C)nc4c3)cc2s1 [Compound 202] | +++ (+++ indicates <2 times of MIC50 on wild type strain (H37Rv)) | +++ (+++ indicates <2 times of MIC50 on wild type strain (H37Rv)) | +++ (+++ indicates <2 times of MIC50 on wild type strain (H37Rv))
